PubChem BioAssay AID330 (DTP/NCI, 2004)
Values joined by “and” are separate entries in the source; they are usually repeats but may differ in a detail not shown here. Equal entries are not always repeated. Toxic doses and inconclusive results are not listed. How the source made its calls: active means survival T/C of 150% or more; inactive means T/C below 125% in these data.

System: P388 leukemia ip, CD2F1 mice, survival T/C
Assay: NCI In Vivo Anticancer Drug Screen. Data for tumor model P388 Leukemia (intraperitoneal) in CD2F1 (CDF1) mice
Conditions: endpoint: median survival time, higher = longer survival
Summary of the method: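 Mice carrying the transplanted tumor received test compound or vehicle. Survival was recorded in each group, and the value is the treated-group measurement divided by that of the vehicle-treated control group.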

[1] = dose: 100.0 mg/kg/injection, schedule: Q04DX002 (ip), vehicle: Klucel (hydroxypropylcellulose) (HPC)
[2] = dose: 200.0 mg/kg/injection, schedule: Q04DX002 (ip), vehicle: Klucel (hydroxypropylcellulose) (HPC)
[3] = dose: 400.0 mg/kg/injection, schedule: Q04DX002 (ip), vehicle: Klucel (hydroxypropylcellulose) (HPC)
[4] = dose: 50.0 mg/kg/injection, schedule: Q01DX009 (ip), vehicle: saline with Tween-80
[5] = dose: 100.0 mg/kg/injection, schedule: Q01DX009 (ip), vehicle: saline with Tween-80
[6] = dose: 200.0 mg/kg/injection, schedule: Q01DX009 (ip), vehicle: saline with Tween-80
[7] = dose: 400.0 mg/kg/injection, schedule: Q01DX009 (ip), vehicle: saline with Tween-80
[8] = dose: 50.0 mg/kg/injection, schedule: Q01DX009 (ip), vehicle: Klucel (hydroxypropylcellulose) (HPC)
[9] = dose: 100.0 mg/kg/injection, schedule: Q01DX009 (ip), vehicle: Klucel (hydroxypropylcellulose) (HPC)
[10] = dose: 200.0 mg/kg/injection, schedule: Q01DX009 (ip), vehicle: Klucel (hydroxypropylcellulose) (HPC)
[11] = dose: 50.0 mg/kg/injection, schedule: Q01DX009 (ip), vehicle: saline
[12] = dose: 100.0 mg/kg/injection, schedule: Q01DX009 (ip), vehicle: saline
[13] = dose: 100.0 mg/kg/injection, schedule: Q04DX003 (ip), vehicle: Klucel (hydroxypropylcellulose) (HPC)
[14] = dose: 200.0 mg/kg/injection, schedule: Q04DX003 (ip), vehicle: Klucel (hydroxypropylcellulose) (HPC)
[15] = dose: 400.0 mg/kg/injection, schedule: Q04DX003 (ip), vehicle: Klucel (hydroxypropylcellulose) (HPC)

Measured: T/C

CC(=C\C1=CC(C)(C)CCC1(C)C)/C=C(C)/C=C/C=[N+](\[O-])C1C(C2COC(C)(C)O2)OC2OC(C)(C)OC21 (configuration not stated)
inactive: dose: 12.5 mg/kg/injection, schedule: Q01DX005 (ip), vehicle: DMSO 103 % of control | dose: 25.0 mg/kg/injection, schedule: Q01DX005 (ip), vehicle: DMSO 119 % of control | dose: 50.0 mg/kg/injection, schedule: Q01DX005 (ip), vehicle: DMSO 100 % of control and 113 % of control | dose: 100.0 mg/kg/injection, schedule: Q01DX005 (ip), vehicle: DMSO 106 % of control | dose: 200.0 mg/kg/injection, schedule: Q01DX005 (ip), vehicle: DMSO 103 % of control

c1ccc(C23CC4CCCCC4CC2O3)cc1 (configuration not stated)
inactive: [1] 98 % of control | [2] 111 % of control | [3] 104 % of control

CCc1ncc(C(C)(O)c2ccc(C)cc2)n1Cc1ccccc1 (configuration not stated)
inactive: dose: 60.0 mg/kg/injection, schedule: Q01DX005 (ip), vehicle: Klucel (hydroxypropylcellulose) (HPC) 90 % of control | dose: 120.0 mg/kg/injection, schedule: Q01DX005 (ip), vehicle: Klucel (hydroxypropylcellulose) (HPC) 86 % of control | dose: 240.0 mg/kg/injection, schedule: Q01DX005 (ip), vehicle: Klucel (hydroxypropylcellulose) (HPC) 86 % of control

COc1cccc(OCC(=O)O)c1OC
inactive: dose: 100.0 mg/kg/injection, schedule: Q01DX001 (ip), vehicle: Klucel (hydroxypropylcellulose) (HPC) 98 % of control | dose: 200.0 mg/kg/injection, schedule: Q01DX001 (ip), vehicle: Klucel (hydroxypropylcellulose) (HPC) 97 % of control

CCOC(=O)C(Cc1ccc(O)cc1)Nc1nc2ccccc2o1 (configuration not stated)
inactive: [4] 95 % of control | [5] 105 % of control | [6] 103 % of control | [7] 96 % of control

COc1cc(OC)c(NC(=S)Nc2sc3c(c2C#N)CCCC3)cc1Cl
inactive: dose: 50.0 mg/kg/injection, schedule: Q01DX009 (ip), vehicle: gum acacia 110 % of control | dose: 100.0 mg/kg/injection, schedule: Q01DX009 (ip), vehicle: gum acacia 103 % of control | dose: 200.0 mg/kg/injection, schedule: Q01DX009 (ip), vehicle: gum acacia 102 % of control

CC1=NCc2nnn(Cc3ccccc3)c2N1
inactive: [8] 100 % of control | [9] 95 % of control | [10] 103 % of control

CSC(=S)n1nc(-c2ccccc2)c(N=Nc2ccc(Br)cc2)c1-c1ccccc1
inactive: [1] 100 % of control | [2] 97 % of control | [3] 101 % of control

OCC1OC(O)C(Cl)(Cl)C(O)C1O (configuration not stated)
inactive: [11] 107 % of control | [12] 117 % of control | dose: 200.0 mg/kg/injection, schedule: Q01DX009 (ip), vehicle: saline 112 % of control

C=C[C@H]1[C@H](OC2OC(CO)C(O)C(O)C2O)OC=C2C(=O)N3CCc4c([nH]c5ccccc45)C3C[C@H]21 (some centres not stated)
inactive: dose: 100.0 mg/kg/injection, schedule: Q01DX001 (ip), vehicle: saline with Tween-80 107 % of control | dose: 200.0 mg/kg/injection, schedule: Q01DX001 (ip), vehicle: saline with Tween-80 94 % of control | dose: 400.0 mg/kg/injection, schedule: Q01DX001 (ip), vehicle: saline with Tween-80 89 % of control

C/[N+]([O-])=C/c1ccccc1
inactive: [13] 104 % of control | [14] 106 % of control | [15] 108 % of control

NC(CS)C(=O)O (configuration not stated) (tested in a mixture with another compound)
inactive: dose: 3.12 mg/kg/injection, schedule: Q01DX009 (ip), vehicle: suspension in saline 90 % of control | dose: 6.25 mg/kg/injection, schedule: Q01DX009 (ip), vehicle: suspension in saline 107 % of control | dose: 12.5 mg/kg/injection, schedule: Q01DX009 (ip), vehicle: suspension in saline 110 % of control | dose: 25.0 mg/kg/injection, schedule: Q01DX009 (ip), vehicle: suspension in saline 110 % of control

O=C1c2ccccc2C(=O)C2C(=O)c3ccccc3C(=O)C12 (configuration not stated)
inactive: dose: 50.0 mg/kg/injection, schedule: Q01DX005 (ip), vehicle: saline with Tween-80 95 % of control | dose: 100.0 mg/kg/injection, schedule: Q01DX005 (ip), vehicle: saline with Tween-80 95 % of control | dose: 200.0 mg/kg/injection, schedule: Q01DX005 (ip), vehicle: saline with Tween-80 103 % of control

COc1c2c(cc3c1-c1c(cc4c(c1OC)OCO4)CC(C)C(C)C3)OCO2 (configuration not stated)
inactive: dose: 13.75 mg/kg/injection, schedule: Q01DX005 (ip), vehicle: Klucel (hydroxypropylcellulose) (HPC) 95 % of control | dose: 27.5 mg/kg/injection, schedule: Q01DX005 (ip), vehicle: Klucel (hydroxypropylcellulose) (HPC) 98 % of control | dose: 55.0 mg/kg/injection, schedule: Q01DX005 (ip), vehicle: Klucel (hydroxypropylcellulose) (HPC) 98 % of control | dose: 110.0 mg/kg/injection, schedule: Q01DX005 (ip), vehicle: Klucel (hydroxypropylcellulose) (HPC) 90 % of control

CN(CCN(C)C(=S)Cl)C(=S)Cl
inactive: [8] 99 % of control | [9] 100 % of control | [10] 96 % of control

CCN(CC)CCNC(c1ccc(OC)cc1)C(Cl)(Cl)Cl (configuration not stated)
inactive: dose: 60.0 mg/kg/injection, schedule: Q01DX005 (ip), vehicle: saline 94 % of control | dose: 120.0 mg/kg/injection, schedule: Q01DX005 (ip), vehicle: saline 94 % of control

Nc1nc(N)c2cc(Sc3ccc(Cl)cc3)ccc2n1
inactive: dose: 25.0 mg/kg/injection, schedule: Q01DX009 (ip), vehicle: saline with Tween-80 118 % of control | [6] 86 % of control

O=[N+]([O-])c1cc(C(F)(F)F)ccc1F
inactive: dose: 25.0 mg/kg/injection, schedule: Q01DX009 (ip), vehicle: Klucel (hydroxypropylcellulose) (HPC) 106 % of control | [8] 106 % of control

CN(C)[C@@H]1C(=O)C(C(=O)NCNC(CO)(CO)CO)=C(O)[C@@]2(O)C(=O)C3=C(O)c4c(O)cccc4[C@@](C)(O)[C@H]3C[C@@H]12
inactive: dose: 25.0 mg/kg/injection, schedule: Q01DX009 (ip), vehicle: saline 100 % of control | [11] 95 % of control | [12] 100 % of control

Cc1ccc(S(=O)(=O)Nc2cc(C)c3c(c2C)CCN=C3)cc1
inactive: dose: 12.5 mg/kg/injection, schedule: Q01DX009 (ip), vehicle: distilled water + Tween-80 93 % of control | dose: 25.0 mg/kg/injection, schedule: Q01DX009 (ip), vehicle: distilled water + Tween-80 91 % of control | dose: 50.0 mg/kg/injection, schedule: Q01DX009 (ip), vehicle: distilled water + Tween-80 88 % of control | dose: 100.0 mg/kg/injection, schedule: Q01DX009 (ip), vehicle: distilled water + Tween-80 93 % of control | dose: 200.0 mg/kg/injection, schedule: Q01DX009 (ip), vehicle: distilled water + Tween-80 91 % of control

CC(=O)Nc1ccc(S(=O)(=O)N/N=C/C(=O)O)cc1
inactive: dose: 3.13 mg/kg/injection, schedule: Q01DX009 (ip), vehicle: other 101 % of control | dose: 6.25 mg/kg/injection, schedule: Q01DX009 (ip), vehicle: other 111 % of control | dose: 12.5 mg/kg/injection, schedule: Q01DX009 (ip), vehicle: other 118 % of control

CC(=O)NC(Cc1ccc(F)cc1)C(=O)O (configuration not stated)
inactive: [4] 101 % of control and 109 % of control | [5] 102 % of control and 109 % of control | [6] 107 % of control and 95 % of control | [7] 107 % of control and 113 % of control | dose: 600.0 mg/kg/injection, schedule: Q01DX009 (ip), vehicle: saline with Tween-80 112 % of control and 124 % of control

CCC(=O)c1ccc(OC(C)=O)cc1
inactive: dose: 50.0 mg/kg/injection, schedule: Q04DX003 (ip), vehicle: saline with Tween-80 103 % of control | dose: 100.0 mg/kg/injection, schedule: Q04DX003 (ip), vehicle: saline with Tween-80 103 % of control | dose: 200.0 mg/kg/injection, schedule: Q04DX003 (ip), vehicle: saline with Tween-80 96 % of control

O=C(O)c1cc2sccc2c(=O)[nH]1
inactive: [13] 102 % of control | [14] 113 % of control | [15] 103 % of control
